The values that follow come from a melting point compilation (Tetko et al.; mined from patent text by program, amines drawn as free bases though some values may be those of a salt).

Molecules are shown by their SMILES. Some results are limits rather than exact numbers.

Usually melting point stands for the temperature of the solid-liquid transition.

In turn, `Cc1cc(CCC(=O)O)nc(-c2nc(=O)c3ccccc3s2)c1` yielded a melting point of 245 to 246 °C.

For the compound `Cc1c(Cc2ccc(C(C)C)cc2)c2c(c(C)c1NC(=O)CC(C)(C)C)C(N1CCCC1)C(C)(C)O2` (stereo not given), the melting point was 179 to 180 °C.

As for `Cc1cc(F)cc2c1CC/C2=C\C(N)=O`, the melting point is 178 to 180 °C.

For the compound `CC(C)(C)OC(=O)N1CCC(Nc2nc3ccccc3[nH]2)CC1`, the melting point stood at 249 °C.

In the case of `CCCCCCCCCCCCCCCCNC(=O)c1cc(O)cc(O)c1`, the melting point lay in the range of 154 to 156 °C.

In the case of `CN(C)C(=O)COc1ccc2c(-c3ccc(Br)cc3)nsc2c1`, the melting point came to 159 °C.

For the compound `[N-]=[N+]=Nc1cc(Oc2ccc3c(c2)CCN3C(=O)Nc2cccc(C(F)(F)F)c2)ncn1`, the melting point was in the range of 167 to 168 °C.

For `CN1CC(=O)Nc2ccc(Cl)c(F)c2C1=O`, the melting point was > 250 °C.

Turning to `Cc1noc(NS(=O)(=O)c2nccs2)c1Br`, the melting point is 175 to 177 °C.

As to `Clc1ccc2[nH]cc([C@H]3CC[C@@H](N4CCN(c5cccc6[nH]ccc56)CC4)CC3)c2c1`, the melting point lay within 283 to 285 °C.

`O=C(OC1c2nccnc2C(=O)N1c1ccc2ccc(Cl)nc2n1)N1CCCCC1` (stereo not given) had a melting point of 249 °C.

In turn, `CCC[C@H]1CC[C@H]([C@H]2CC[C@H](c3cc(F)c(C[C@H](C)c4ccccc4)c(F)c3)CC2)CC1` came in with a melting point of 93.7 °C.

`Cc1c(N(C)C)n2c(cc1=O)CCCC2`: the melting point is > 240 °C.

As to `O=C(O)c1ccc(-c2nc(-c3cccc(OC(F)(F)F)c3)cs2)cc1`, the melting point was in the range of 233 to 234 °C.

The compound `O=C1N(N2CCCCC2)c2ccccc2C1(Cc1ccnc(F)c1)c1ccccc1` (stereo not given) yielded a melting point of 129 to 132 °C.

`COc1ccc(-c2ccc3c(F)c(OC)ccc3c2)cc1` gave a melting point of 150 to 155 °C.

On to `C/C(=C\c1ccc(C(=O)OCc2ccc([N+](=O)[O-])cc2)cc1)c1ccc2c(c1)C(C)(C)CCC2(C)C`, for which the melting point lay in the range of 183 to 184 °C.

For the compound `O=P(O)(O)Cc1ccccc1C(F)(F)F`, the melting point fell in the range of 190 to 192 °C.

For the compound `CC(=O)NCC[C@@H]1CCc2ccc3nn(C)c(Cl)c3c21`, the melting point is 168 to 171 °C.

Compound `O=C(/C=C/c1cccc(NC(=O)CCCc2ccccc2)c1)NO` yielded a melting point of 152 to 153 °C.

As for `O=C(O)c1ccccc1NC1CCOC1=O` (stereo not given), the melting point was in the range of 197 to 198 °C.

`CCn1ncc2c3noc(-c4ccc(C(F)(F)F)cc4)c3cnc21` gave a melting point of 243 to 245 °C.

As to `NC(=O)c1c(Cl)cc(Cl)c(OCCCC(=O)O)c1Cl`, the melting point fell in the range of 165 to 166 °C.

As for `CCNC(=O)c1cccs1`, the melting point lay within 75 to 78 °C.

Take `CCCC(=O)c1cnc2c(C)cccc2c1Nc1ccccc1CC`: the melting point lay in the range of 117 to 119 °C.

Regarding `CCC(N=O)C(C)(C)Cl` (stereo not given), the melting point was in the range of 85 to 86 °C.

With `Cc1oc2cc(CCl)ccc2c1C`, the melting point lay in the range of 63 to 65 °C.

Compound `Cc1nnc(-c2ccc3occ(-c4ccc(C(C)O)cc4)c3c2)o1` (stereo not given) returned a melting point of 148 to 149 °C.

For `CCCNC(=O)c1ccc2c(c1)N(C(C)CN1CCCCCC1)c1ccccc1S2` (racemic), the melting point amounted to 113 °C.

Turning to `CCOC(=O)C(=O)Nc1ccc(Oc2ccc(NC(=O)C(=O)OCC)cc2)cc1`, the melting point was 150 to 158 °C.

The compound `Cc1cc(CCCCCOc2ccc(C3NCCS3)cc2)on1` (stereo not given) returned a melting point of 82 to 84 °C.

Turning to `Cn1c(-c2ccc(-n3ccnc3)cc2)cnc1[C@H](Cc1ccccn1)N(C=O)c1cc2cccnc2o1`, the melting point is 108 to 110 °C.

As for `C[C@@H](NC(=O)c1sc(-c2ccc(C#N)cc2)nc1C(F)(F)F)[C@](O)(Cn1cncn1)c1ccc(F)cc1F`, the melting point was 101 to 108 °C.

As for `Nc1c2c(=O)c3ccccc3c(=O)c2c(N)c2c(=O)n(CCCCCCO)c(=O)c12`, the melting point fell in the range of 210 to 211 °C.

With `CCC(=O)N[C@@H](C)C(=O)N1CCC[C@H]1C(=O)NC1CCCCC1`, the melting point lay in the range of 172 to 174 °C.

On to `COc1cc(OC)c2c(=O)[nH]c(-c3cc(C)c(OCCOCc4ccccc4)c(C)c3)nc2n1`, for which the melting point was 204 to 206 °C.

Take `O=C(CC(=O)c1ccccc1)C(=O)CC(=O)c1ccccc1`: the melting point lay in the range of 178 to 180 °C.

The compound `COC(=O)c1cc(-c2c(Br)c(C(F)(F)F)n(C)c2Br)c(F)cc1Cl` gave a melting point of 97 °C.

The compound `CCCCCCCCCCCCCCCC(=O)OCC1OC(N2CNC(N)=NC2=O)CC1O` (stereo not given) showed a melting point of 123 to 124 °C.

In turn, `Cn1c(C(F)(F)F)ccc(-c2c(F)cc(Cl)c3oc(CO)cc23)c1=O` returned a melting point of 145 to 147 °C.

Compound `O=C(OCCN1CCCC1)c1ccccc1Nc1ccnc2cc(Cl)ccc12` gave a melting point of 102 to 104 °C.

The compound `COC(=N)NC(=O)Nc1ccc(Cl)cc1` had a melting point of 115 to 117 °C.

Compound `COc1ccc(CN2C(=O)C(C)(c3cc(COCCN4CCOCC4)ccc3Cl)c3cc(Cl)ccc32)c(OC)c1` (stereo not given) displayed a melting point of 81 °C.

Compound `O=C(C(=O)c1cccc(C(=O)C(=O)c2ccc(Oc3ccc(Br)cc3)cc2)c1)c1ccc(Oc2ccc(Br)cc2)cc1` displayed a melting point of 120 to 122 °C.

The compound `COC(=O)Cc1ccccc1Oc1cccc(O)c1` came in with a melting point of 115 to 116 °C.

Take `CN1CCN(c2nc(-c3ccccc3)c(-c3ccnc(S(C)=O)n3)s2)CC1` (stereo not given): the melting point fell in the range of 166 to 169 °C.

`O=C(O)COc1cc2onc(-c3ccccc3F)c2cc1Cl` had a melting point of 214 to 215 °C.

`Cc1cccc(NC(=O)NC2N=C(C(C)C)c3ccccc3N(CC(=O)N3CC4CCC(CC4)C3)C2=O)c1` (stereo not given) displayed a melting point of 123 to 126 °C.

Consider `COc1cc(COc2nn(-c3ccccc3)cc2/C=C/c2nc(N3CCOCC3)sc2C)ccc1OCc1nc(-c2ccc(CC(=O)O)cc2)oc1C`, for which the melting point was in the range of 171 to 173 °C.

In turn, `C[C@H](NC1Cc2ccccc2C1)C(=O)O` yielded a melting point of 285 °C.

With `CCOCc1nc2c(N)nc3cc(Br)ccc3c2n1CC1CCCCN1C(=O)OC(C)(C)C` (stereo not given), the melting point was in the range of 190 to 192 °C.

On to `Nc1ccc(F)c(-c2ccccn2)c1F`, for which the melting point lay in the range of 71 to 73 °C.

Compound `Cc1cc(-c2cccc(-c3ccc(CCCNC4CCc5ccccc5C4)cc3)n2)c(C)[nH]1` (stereo not given) displayed a melting point of 120 to 130 °C.

`COCc1cccc(-c2ccc3nc(-c4ccc(Cl)cc4)c(Cl)n3c2)c1` showed a melting point of 120 to 122 °C.

Compound `CC(C(=O)O)c1ccc2nc3c(Cl)cc(Cl)cn3c(=O)c2c1` (stereo not given) yielded a melting point of 241 °C.

On to `O=[N+]([O-])c1cc(I)cc(OCc2ccccc2)c1`, for which the melting point lay within 79 to 80 °C.

Compound `CCCCCCCOc1ccc(C(C)O)cc1` (single isomer, unassigned; (+)) came in with a melting point of 36.7 °C.

In the case of `Cc1cc(C)cc(NC(=O)Cc2ccc(OC3(C(=O)O)CCCC(C)C3)cc2)c1` (stereo not given), the melting point fell in the range of 175 to 177 °C.

With `CCCc1nc(NCCO)nc(N2CCOCC2)n1`, the melting point fell in the range of 95 to 99 °C.

With `CCCCCCCC(N)=NO`, the melting point is 73 to 75 °C.

In turn, `CCOC(=O)C1=C(C)NC(C)=C2C(=O)Nc3ccccc3C21` (stereo not given) had a melting point of 236 to 238 °C.

Take `Cc1ccc(-n2nccc2-c2nn(-c3cccc(C(F)(F)F)c3)ccc2=O)cc1`: the melting point was 164 to 165 °C.

`CSCCC1OC2(CCCCC2)NC1=O` (stereo not given) showed a melting point of 109 °C.

In turn, `CCOc1ccc(NC(=S)SC)cc1F` yielded a melting point of 108 °C.

Compound `CC(C)(C)C(=O)Oc1ccc(NCC2CCc3ccccc3C2)cc1` (stereo not given) came in with a melting point of 75 to 77 °C.

Take `Cc1nccn1-c1nc(-c2ccc(Cl)cc2)c(CCCC(=O)O)o1`: the melting point lay in the range of 211 to 212 °C.

For the compound `COc1cccc(C=C(NC=O)c2ccncc2)c1OC`, the melting point fell in the range of 161 to 162 °C.

For `COCOc1cc(OC)ccc1Br`, the melting point is 40 to 42 °C.

The compound `COC(=O)c1c(N)cc(OC)c(OC)c1OC` registered a melting point of 94 to 96 °C.

Consider `CN(C)c1cccc(C(=O)COc2cccc(Cl)c2)c1`, for which the melting point lay within 70 to 72 °C.

As to `O=C1NC(=S)C(=Cc2cc(O)c(O)c([N+](=O)[O-])c2)O1`, the melting point was 245 °C.

The compound `c1ccc(-c2ccc(Nc3ncc(-c4ccccc4)s3)nc2)cc1` returned a melting point of 231 to 233 °C.

`Cc1ccc(C(=O)Nc2ccc3ccc(Cl)nc3n2)nn1` displayed a melting point of 258 °C.

As to `CC1CN(Cc2ccccc2)CCC12CC(c1ccccc1)=NO2` (stereo not given), the melting point lay within 101 to 108 °C.

`CCC1CCCCN1C(=O)C=Cc1c(-c2cccc(NC(=O)OC)c2)nn2ccccc12` (stereo not given) came in with a melting point of 143 to 145 °C.

Regarding `Cc1noc(NC(=O)C2c3ccccc3Oc3ccccc32)n1`, the melting point was determined as 208 °C.

Consider `COC1=CCc2cccc(N)c2C1`, for which the melting point lay in the range of 84 to 85 °C.

Take `N#Cc1c(N2CCN(C(=O)c3ccc4c(c3)OCO4)CC2)c2ccccc2n(Cc2ccc(F)cc2)c1=O`: the melting point lay within 140 to 160 °C.

Regarding `CCCCC(=O)Nc1cccc2c1C(=O)N(C1(C)CCC(=O)NC1=O)C2=O` (stereo not given), the melting point was in the range of 190 to 192 °C.

The compound `CCn1c(=O)c(C)cc2cnc(Nc3ccc(N4CCN(C)CC4)cc3)nc21` gave a melting point of 198 to 200 °C.

In turn, `C=CCC12CC(=O)N(C)C1(O)CCc1ccc(OC)cc12` (stereo not given) gave a melting point of 146 to 149 °C.

`CCc1cccc(C)c1CNc1cc(C(=O)N2CCCC2)cc2c1nc(C)n2C`: the melting point was found to be 126 °C.

The compound `O=C(NCCCCCCNC(=O)c1ccc(OC(F)(F)F)cc1)c1ccc(OC(F)(F)F)cc1` returned a melting point of 179 to 180 °C.

`CCC12CCC(=O)C=C1c1c(cc(OCC(=O)OCC(C)=O)c(Cl)c1Cl)C2` (stereo not given) showed a melting point of 153 to 155 °C.

In turn, `CN1CCCC1CCNc1nccc(Oc2ccc(NC(=O)c3cc(F)cc(N4CCOCC4)c3)c3ccccc23)n1` (stereo not given) displayed a melting point of 100 to 101 °C.

Regarding `COc1ccccc1C1(Cl)C(=O)Nc2ccc(C)c(Cl)c21` (stereo not given), the melting point is 262 to 263 °C.

Consider `COc1cc(C(=O)c2[nH]c3ccccc3c2C)cc([N+](=O)[O-])c1O`, for which the melting point was 195 to 197 °C.

Consider `Nc1ccc(Oc2ccccc2Oc2ccc(N)cc2)cc1`, for which the melting point lay within 135 to 136 °C.

`CC#Cc1ccc(NC(=O)C#Cc2ccc(CCN3CCCC3)cc2)cc1` displayed a melting point of 198 to 199 °C.

`CN1CCC(Cn2nc(-c3c(-c4ccccc4)nn4ccccc34)ccc2=O)CC1` displayed a melting point of 180 to 181 °C.
